According to paper PMC12657457 (Frontiers in Pharmacology, 2025):
pIC50, pKi: −log10 of the molar value. Structures can show the parent of a compound that is named as a salt. Where two headings read alike, the source gives them in different places.

What was measured:
[1] = biological target: T1, plasma-derived BChE (Homo sapiens, UniProt P06276); experiment: Single-concentration screening, modified Ellman's assay (BChE); format: biochemical; conditions: read-out: BChE inhibition relative to vehicle control
T1 construct: pooled human plasma (source of BChE) were used as enzyme sources; from tissue; host or cells: pooled human plasma from patients with mild-to-moderate AD
Procedure: Propranolol hydrochloride and diltiazem hydrochloride were obtained from Sigma-Aldrich (St. Louis, MO, United States). The stock solution was prepared at 10 mM in DMSO. Acetylthiocholine iodide (ATC), butyrylthiocholine iodide (BTC), and 5,5′-dithiobis-(2-nitrobenzoic acid) (DTNB) were also purchased from Sigma-Aldrich. Recombinant human AChE (Cat. No. C1682) and pooled human plasma (source of BChE) were used as enzyme sources. The pooled human plasma was prepared as described before ([Vijayaraghavan et al., 2013]). Briefly, pooled plasma samples were prepared by combining equal volumes from a large cohort of patients clinically diagnosed with mild-to-moderate AD. […]
Cholinesterase activity was measured using a modified Ellman’s colorimetric method adapted for high-throughput screening ([Kumar et al., 2017]; [2020]; [Darreh-Shori et al., 2024]). […] The plate reader (Tecan Infinite M1000) was configured for a 384-well transparent plate in absorbance mode at 412 nm, with kinetic reading taken over 10 min at 1-min intervals. Following incubation, 20 µL of Master Mix Buffer (MMB) cocktail was added to each well using a multichannel pipette, and the plate reading was initiated inmediately. […] Upon completion of the reading, the data file was saved, enzyme activity rates were extracted, and the data were analyzed. […]

[2] = biological target: T2, human plasma BChE (Homo sapiens, UniProt P06276); experiment: Ex vivo enzyme-inhibition kinetic analysis (Ki and inhibition mode); format: biochemical; conditions: for Inhibition mode (BChE): best-fit nonlinear regression model
T2 construct: pooled human plasma (source of BChE) were used as enzyme sources; from tissue; host or cells: pooled human plasma from patients with mild-to-moderate AD
Procedure: (§1) The stock solution was prepared at 10 mM in DMSO. Acetylthiocholine iodide (ATC), butyrylthiocholine iodide (BTC), and 5,5′-dithiobis-(2-nitrobenzoic acid) (DTNB) were also purchased from Sigma-Aldrich. Recombinant human AChE (Cat. No. C1682) and pooled human plasma (source of BChE) were used as enzyme sources. The pooled human plasma was prepared as described before ([Vijayaraghavan et al., 2013]). Briefly, pooled plasma samples were prepared by combining equal volumes from a large cohort of patients clinically diagnosed with mild-to-moderate AD. All samples were collected prior to the initiation of any cholinesterase inhibitor treatment. An equal volume of glycerol was then added to the pooled plasma, thoroughly mixed, and aliquoted into small tubes. These aliquots were stored at -20 °C until used in the assay. Each aliquot was used only once to avoid any interference due to freeze-thaw cycles. All other reagents were of analytical grade.
(§2) Substrate concentrations were varied in a two-fold serial dilution: BTC (5 mM–[…]) for BChE and ATC (0.5 mM–[…]) for AChE. Each well received 20 µL of compound or vehicle, 20 µL of substrate, 20 µL of enzyme/DTNB master mix (for all of them 4x working solution in order to reach final concentration), and 20 µL of buffer. Absorbance at 412 nm was measured every 2 min for 15–20 min.
To further elucidate the mechanism of inhibition, inhibition constant (Kᵢ) values and inhibition modes were determined using nonlinear regression models in GraphPad Prism 10. Multiple models were tested, including competitive, noncompetitive, uncompetitive, and mixed inhibition. The optimal model for each compound was selected based on residual analysis and the Akaike Information Criterion (AIC), ensuring robust statistical support. In cases of mixed inhibition, the α parameter was used to characterize the relative affinity of the inhibitor for the enzyme-substrate complex versus the free enzyme.

[3] = biological target: T3, Recombinant human AChE (Homo sapiens, UniProt P22303); experiment: Single-concentration screening, modified Ellman's assay (AChE); format: biochemical; conditions: 0.5 mM ATC
T3 construct: purchased Sigma-Aldrich C1682
Procedure: as §1, with “Propranolol hydrochloride and diltiazem hydrochloride were obtained from Sigma-Aldrich (St. Louis, MO, United States). The stock” for “The stock”
Cholinesterase activity was measured using a modified Ellman’s colorimetric method adapted for high-throughput screening ([Kumar et al., 2017]; [2020]; [Darreh-Shori et al., 2024]). Assays were conducted in 384-well microplates. Briefly, 20 µL of buffer was initially added to all wells. Subsequently, 20 µL of enzyme solution was added to designated wells, while 20 µL of buffer without enzyme was added to the negative control wells. […] The plate reader (Tecan Infinite M1000) was configured for a 384-well transparent plate in absorbance mode at 412 nm, with kinetic reading taken over 10 min at 1-min intervals. Following incubation, 20 µL of Master Mix Buffer (MMB) cocktail was added to each well using a multichannel pipette, and the plate reading was initiated inmediately. […] Upon completion of the reading, the data file was saved, enzyme activity rates were extracted, and the data were analyzed. Enzyme activity was calculated from the slope of the linear portion of the absorbance-time curve.

[4] = biological target: T4, human BChE (Homo sapiens, UniProt P06276); experiment: IC50 determination against BChE in pooled human plasma (Ellman); format: biochemical
T4 construct: pooled human plasma (source of BChE) were used as enzyme sources; from tissue; host or cells: pooled human plasma from patients with mild-to-moderate AD
Procedure: as §1, §2

[5] = tested on: BChE; conditions: at approximately 0.59 µM in plasma and 10 µM in brain tissue; ref Cruickshank and Neil-Dwyer, 1985; cited from earlier work
[6] = physiologically relevant concentration; ref Cruickshank and Neil-Dwyer, 1985; cited from earlier work

T4 sequence (P06276 29-602): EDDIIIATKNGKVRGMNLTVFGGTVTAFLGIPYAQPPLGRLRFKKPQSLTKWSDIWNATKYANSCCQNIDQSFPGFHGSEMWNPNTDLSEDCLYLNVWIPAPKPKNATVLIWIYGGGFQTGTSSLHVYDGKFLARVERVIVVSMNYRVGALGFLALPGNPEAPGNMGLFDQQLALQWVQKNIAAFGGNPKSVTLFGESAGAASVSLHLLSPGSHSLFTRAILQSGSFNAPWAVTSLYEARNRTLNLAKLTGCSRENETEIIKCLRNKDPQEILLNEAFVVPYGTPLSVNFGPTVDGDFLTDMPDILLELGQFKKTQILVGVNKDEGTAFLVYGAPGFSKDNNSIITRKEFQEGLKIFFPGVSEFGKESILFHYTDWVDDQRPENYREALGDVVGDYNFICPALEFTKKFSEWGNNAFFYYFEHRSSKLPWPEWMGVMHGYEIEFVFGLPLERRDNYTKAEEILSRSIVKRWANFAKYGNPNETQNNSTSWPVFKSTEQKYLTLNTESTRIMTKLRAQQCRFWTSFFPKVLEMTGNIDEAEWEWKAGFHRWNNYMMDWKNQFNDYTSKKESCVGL
T2 sequence (P06276 29-602): as above
T3 sequence (P22303 32-614): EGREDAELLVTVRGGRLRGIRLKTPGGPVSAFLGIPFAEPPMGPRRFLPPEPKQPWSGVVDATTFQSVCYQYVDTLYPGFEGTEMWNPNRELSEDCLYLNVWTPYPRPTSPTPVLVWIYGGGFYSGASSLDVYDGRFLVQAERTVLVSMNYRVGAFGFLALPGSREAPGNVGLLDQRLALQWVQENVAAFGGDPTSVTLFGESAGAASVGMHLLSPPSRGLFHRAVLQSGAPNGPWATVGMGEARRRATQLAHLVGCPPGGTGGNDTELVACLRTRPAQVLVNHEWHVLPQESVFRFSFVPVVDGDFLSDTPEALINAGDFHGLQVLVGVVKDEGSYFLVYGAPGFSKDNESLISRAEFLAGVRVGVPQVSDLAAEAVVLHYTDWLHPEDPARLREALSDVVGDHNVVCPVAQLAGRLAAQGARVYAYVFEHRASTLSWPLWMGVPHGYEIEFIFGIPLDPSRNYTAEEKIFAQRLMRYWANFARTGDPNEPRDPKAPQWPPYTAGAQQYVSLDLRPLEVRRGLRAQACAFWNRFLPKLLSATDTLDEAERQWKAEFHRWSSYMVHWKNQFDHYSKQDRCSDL
T1 sequence (P06276 29-602): as the sequence (P06276 29-602) above

## COc1ccc([C@@H]2Sc3ccccc3N(CCN(C)C)C(=O)[C@@H]2OC(C)=O)cc1 [Diltiazem, diltiazem hydrochloride]
[1]; single concentration 100 µM, 5 mM BTC
  inhibition at 100 µM: > 80%
[2]
  pKi: 5.64
  Inhibition mode (BChE): competitive inhibitor
[2]; listed as diltiazem
  Inhibition mode (BChE): competitive inhibition
[3]; single concentration 100 µM, read-out: AChE inhibition relative to vehicle control
  inhibition at 100 µM: 2%
[4]
  pIC50: 3.82

## CCN(CC)C(C)CN1c2ccccc2Sc2ccccc21 (stereo not shown) [Ethopropazine]
[2]
  Inhibition mode (BChE): Mixed-competitive
[2]; listed as ethopropazine
  Inhibition mode (BChE): mixed competitor
[3]; single concentration 100 µM
  AChE inhibition relative to vehicle control: no inhibition
[4]
  pIC50: 5.55

## CNC(=O)Oc1ccc2c(c1)[C@]1(C)CCN(C)[C@@H]1N2C [Physostigmine]
[2]
  Inhibition mode (BChE): Competitive
[2]; listed as physostigmine
  Inhibition mode (BChE): competitive inhibition

## CC(C)NCC(O)COc1cccc2ccccc12 (stereo not shown) [Propranolol, Propranolol hydrochloride]
[1]
  inhibition at 100 µM: > 80%
[2]
  pKi: 6.72
  Inhibition mode (BChE): competitive inhibitor
[2]; listed as propranolol
  Inhibition mode (BChE): competitive inhibition
[2]; substrate concentration range of 0.08 mM–0.62 mM
  Concentration that reduced BChE activity to half of its baseline level: 0.19 µM
[5]
  Reduction of BChE activity: approximately 50%
[3]; read-out: AChE inhibition relative to vehicle control, single concentration 100 µM
  inhibition at 100 µM: 18%
[4]; 5 mM BTC as substrate, plasma BChE, read-out: IC50 (BChE)
  pIC50: 4.25
[6]
  Concentration in plasma: approximately 0.59 µM
  Concentration in the brain tissue: ~10 µM
